Measured values taken from patent US10934298B2, “Substituted pyrazolo[1,5-a]pyrimidines for the treatment of medical disorders” (BIAL—BioTech Investments, Inc., priority 2016, dated 2021).

Molecular target: T1, glucocerebrosidase (Gcase) (Homo sapiens, UniProt P04062)
T1 construct: micellar solution containing 10 nM GCase and 100 nM saposin C
T1 sequence (P04062 40-536): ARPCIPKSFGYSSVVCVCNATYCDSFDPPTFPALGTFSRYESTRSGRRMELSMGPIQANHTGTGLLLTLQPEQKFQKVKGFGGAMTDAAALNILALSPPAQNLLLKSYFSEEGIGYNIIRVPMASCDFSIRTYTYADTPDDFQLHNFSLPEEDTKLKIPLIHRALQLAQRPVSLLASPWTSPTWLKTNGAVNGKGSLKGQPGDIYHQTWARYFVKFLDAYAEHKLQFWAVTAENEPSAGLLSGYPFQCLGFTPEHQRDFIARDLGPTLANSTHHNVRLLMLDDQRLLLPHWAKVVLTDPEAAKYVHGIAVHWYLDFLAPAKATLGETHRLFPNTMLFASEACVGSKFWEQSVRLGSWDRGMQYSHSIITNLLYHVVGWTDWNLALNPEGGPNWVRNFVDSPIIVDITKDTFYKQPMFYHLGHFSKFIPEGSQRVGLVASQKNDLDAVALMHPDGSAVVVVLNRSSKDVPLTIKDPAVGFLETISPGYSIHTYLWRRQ
Assay: Glucocerebrosidase (Gcase) activation assay with 4-methylumbelliferyl-beta-D-glucopyranoside substrate, saposin C and phosphatidylserine/triton micelles, fluorescence readout
Format: biochemical
Outline: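 10 nM GCase with 100 nM saposin C pre-incubated 30 min with compound in pH 4.7 phosphate/citrate PS/triton micelles, then mixed 1:1 with 2 mM 4-methylumbelliferyl-β-glucoside micellar substrate (stock level). Run 15 min at room temperature, stopped at pH 12.5; fluorescence 365/440 nm. Screened at 1.0 and 0.1 μM; 8-point curves from 5 μM.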

| Percent Gcase Activation, 0.1 μM Test Compound | Percent Gcase Activation, 1 μM Test Compound | SMILES |
| --- | --- | --- |
| *** (greater than 20% Gcase activation) | +++ (Gcase activation greater than 60%) | Cc1cc(-c2cccnc2C#N)nc2c(C(=O)N[C@@H](C3CC3)C(F)(F)F)cnn12 [III-366] |
| * (less than 10% Gcase activation) | +++ (Gcase activation greater than 60%) | Cc1cc(-c2ccc(C#N)nc2)nc2c(C(=O)NC(C)(C)C3CC3)cnn12 [III-370] |
| * (less than 10% Gcase activation) | +++ (Gcase activation greater than 60%) | Cc1cc(-c2cccnc2C#N)nc2c(C(=O)NC(C)(C)C3CC3)cnn12 [III-371] |
| *** (greater than 20% Gcase activation) | +++ (Gcase activation greater than 60%) | Cc1ccc(-c2cc(C)n3ncc(C(=O)N[C@H](C4CC4)C(F)(F)F)c3n2)c(F)n1 [III-372] |
| *** (greater than 20% Gcase activation) | +++ (Gcase activation greater than 60%) | Cc1ccc(-c2cc(C)n3ncc(C(=O)N[C@@H](C4CC4)C(F)(F)F)c3n2)c(F)n1 [III-373] |
| *** (greater than 20% Gcase activation) | +++ (Gcase activation greater than 60%) | Cc1cnc(F)c(-c2cc(C)n3ncc(C(=O)N[C@H](C4CC4)C(F)(F)F)c3n2)c1 [III-374] |
| *** (greater than 20% Gcase activation) | +++ (Gcase activation greater than 60%) | Cc1cnc(F)c(-c2cc(C)n3ncc(C(=O)N[C@@H](C4CC4)C(F)(F)F)c3n2)c1 [III-375] |
| * (less than 10% Gcase activation) | + (less than 30% Gcase activation) | Cc1ncccc1-c1cc(C)n2ncc(C(=O)N[C@H](C3CC3)C(F)(F)F)c2n1 [III-376] |
| * (less than 10% Gcase activation) | + (less than 30% Gcase activation) | Cc1ncccc1-c1cc(C)n2ncc(C(=O)N[C@@H](C3CC3)C(F)(F)F)c2n1 [III-377] |
| *** (greater than 20% Gcase activation) | +++ (Gcase activation greater than 60%) | Cc1ncc(-c2cc(C)n3ncc(C(=O)N[C@H](C4CC4)C(F)(F)F)c3n2)cc1F [III-380] |
| *** (greater than 20% Gcase activation) | +++ (Gcase activation greater than 60%) | Cc1ncc(-c2cc(C)n3ncc(C(=O)N[C@@H](C4CC4)C(F)(F)F)c3n2)cc1F [III-381] |
| *** (greater than 20% Gcase activation) | +++ (Gcase activation greater than 60%) | Cc1cccc(-c2cc(C)n3ncc(C(=O)N[C@@H](C4CC4)C(F)(F)F)c3n2)n1 [III-382] |
| *** (greater than 20% Gcase activation) | +++ (Gcase activation greater than 60%) | C#Cc1cncc(-c2cc(C)n3ncc(C(=O)N[C@@H](C4CC4)C(F)(F)F)c3n2)c1 [III-383] |
| * (less than 10% Gcase activation) | + (less than 30% Gcase activation) | Cc1nsc(C)c1-c1cc(C)n2ncc(C(=O)N[C@H](C3CC3)C(F)(F)F)c2n1 [III-385] |
| * (less than 10% Gcase activation) | + (less than 30% Gcase activation) | Cc1nsc(C)c1-c1cc(C)n2ncc(C(=O)N[C@@H](C3CC3)C(F)(F)F)c2n1 [III-386] |
| *** (greater than 20% Gcase activation) | +++ (Gcase activation greater than 60%) | Cc1sncc1-c1cc(C)n2ncc(C(=O)N[C@H](C3CC3)C(F)(F)F)c2n1 [III-387] |
| *** (greater than 20% Gcase activation) | +++ (Gcase activation greater than 60%) | Cc1sncc1-c1cc(C)n2ncc(C(=O)N[C@@H](C3CC3)C(F)(F)F)c2n1 [III-388] |
| *** (greater than 20% Gcase activation) | +++ (Gcase activation greater than 60%) | Cc1nscc1-c1cc(C)n2ncc(C(=O)N[C@H](C3CC3)C(F)(F)F)c2n1 [III-389] |
| *** (greater than 20% Gcase activation) | +++ (Gcase activation greater than 60%) | Cc1nscc1-c1cc(C)n2ncc(C(=O)N[C@@H](C3CC3)C(F)(F)F)c2n1 [III-390] |
| *** (greater than 20% Gcase activation) | +++ (Gcase activation greater than 60%) | Cc1cc(-c2noc(C(C)C)n2)nc2c(C(=O)N[C@H](C3CC3)C(F)(F)F)cnn12 [III-393] |
| *** (greater than 20% Gcase activation) | +++ (Gcase activation greater than 60%) | Cc1cc(-c2noc(C(C)C)n2)nc2c(C(=O)N[C@@H](C3CC3)C(F)(F)F)cnn12 [III-394] |
| *** (greater than 20% Gcase activation) | +++ (Gcase activation greater than 60%) | Cc1cc(-c2cc(F)ccc2C#N)nc2c(C(=O)N[C@@H](C)C3CC3)cnn12 [III-396] |
| *** (greater than 20% Gcase activation) | +++ (Gcase activation greater than 60%) | Cc1cc(-c2cccc(F)c2C#N)nc2c(C(=O)N[C@@H](C)C3CC3)cnn12 [III-398] |
| *** (greater than 20% Gcase activation) | +++ (Gcase activation greater than 60%) | Cc1cc(-c2cccc(F)c2C#N)nc2c(C(=O)N[C@@H](C)C(F)(F)F)cnn12 [III-399] |
| *** (greater than 20% Gcase activation) | +++ (Gcase activation greater than 60%) | Cc1cc(-c2noc(C(C)C)n2)nc2c(C(=O)N[C@@H](C)C(F)(F)F)cnn12 [III-401] |
| *** (greater than 20% Gcase activation) | +++ (Gcase activation greater than 60%) | Cc1cc(-c2noc(C(C)C)n2)nc2c(C(=O)N[C@@H](C)C3CC3)cnn12 [III-402] |

| SMILES | Percent Gcase Activation, 0.1 μM Test Compound | Percent Gcase Activation, 1 μM Test Compound |
| --- | --- | --- |
| Cc1cc(-c2ccc(C#N)nc2)nc2c(C(=O)N[C@H](C3CC3)C(F)(F)F)cnn12 [III-367] | ** (Gcase activation in the range of 10% up to 20%) | +++ (Gcase activation greater than 60%) |
| Cc1cc(-c2ccc(C#N)nc2)nc2c(C(=O)N[C@@H](C3CC3)C(F)(F)F)cnn12 [III-368] | ** (Gcase activation in the range of 10% up to 20%) | +++ (Gcase activation greater than 60%) |
| Cc1cc(-c2cncc(C#N)c2)nc2c(C(=O)NC(C)(C)C3CC3)cnn12 [III-369] | ** (Gcase activation in the range of 10% up to 20%) | +++ (Gcase activation greater than 60%) |
| Cc1ncc(F)cc1-c1cc(C)n2ncc(C(=O)N[C@H](C3CC3)C(F)(F)F)c2n1 [III-378] | ** (Gcase activation in the range of 10% up to 20%) | +++ (Gcase activation greater than 60%) |
| Cc1ncc(F)cc1-c1cc(C)n2ncc(C(=O)N[C@@H](C3CC3)C(F)(F)F)c2n1 [III-379] | ** (Gcase activation in the range of 10% up to 20%) | +++ (Gcase activation greater than 60%) |
| COCOc1cccc(-c2cc(C)n3ncc(C(=O)N[C@@H](C4CC4)C(F)(F)F)c3n2)n1 [III-384] | ** (Gcase activation in the range of 10% up to 20%) | +++ (Gcase activation greater than 60%) |
| Cc1cc(-c2nnc(C(C)C)o2)nc2c(C(=O)N[C@H](C3CC3)C(F)(F)F)cnn12 [III-391] | ** (Gcase activation in the range of 10% up to 20%) | +++ (Gcase activation greater than 60%) |
| Cc1cc(-c2nnc(C(C)C)o2)nc2c(C(=O)N[C@@H](C3CC3)C(F)(F)F)cnn12 [III-392] | ** (Gcase activation in the range of 10% up to 20%) | +++ (Gcase activation greater than 60%) |
| Cc1cc(C#N)nc2c(C(=O)N[C@@H](C3CC3)C(F)(F)F)cnn12 [III-395] | * (less than 10% Gcase activation) | ++ (Gcase activation in the range of 30% up to 60%) |
| Cc1cc(-c2c(F)cccc2C#N)nc2c(C(=O)N[C@@H](C)C3CC3)cnn12 [III-397] | ** (Gcase activation in the range of 10% up to 20%) | +++ (Gcase activation greater than 60%) |
| Cc1cc(-c2c(F)cccc2C#N)nc2c(C(=O)N[C@@H](C)C(F)(F)F)cnn12 [III-400] | ** (Gcase activation in the range of 10% up to 20%) | +++ (Gcase activation greater than 60%) |
